US12097213B2, “Sequential treatment of cancers using 6-thio-dG, checkpoint inhibitors and radiation therapy” (The Board of Regents of the University of Texas System, priority 2020, dated 2024)
pIC50: −log10 of the molar value.

Columns and labels:
[1] = tested on: MC38 cells; assay: Cell viability assay (CellTiter 96), MC38; format: cell-based; settings: Mus musculus, MC-38, 120 h; cells treated for 5 days; read-out: IC50 concentration, cell viability
Procedure: (§1) Cell viability assay. For determination of IC50 with cell proliferation assays, murine and human cancer cell lines were screened with 6-thio-dG with a 2-fold dilution series in 8 different points in 96-well plates. Cells were plated 24 hrs prior to the addition of drug, incubated for 4-5 days, and assayed using CellTiter 96® Aqueous One Solution Cell Proliferation Assay according to the manufacturer's instructions (Promega). Cell number per well ranged from 1,000 to 10,000 cells per well inversely proportional to doubling times. Dose response curves were generated and IC50s calculated using Graphpad Prism. All samples were analyzed in triplicate and standard deviations are from 2-3 independent experiments.

[2] = tested on: HCT116 human colon cancer cells; assay: Cell viability assay (CellTiter 96), HCT116; format: cell-based; settings: HCT-116, 120 h, cells treated for 5 days
Procedure: as §1

[3] = tested on: LLC murine lung cancer cells; assay: Cell viability assay (CellTiter 96), LLC; format: cell-based, mouse; settings: treated for 4 days
Procedure: as §1

[4] = tested on: A375 human melanoma cancer cells; assay: Cell viability assay (CellTiter 96), A375; format: cell-based; settings: treated for 4 days
Procedure: as §1

[5] = tested on: LLC murine lung tumor cells; assay: LLC tumor growth and treatment in mice; format: in vivo, mouse
Procedure: Tumor growth and treatment. A total of 5×10^5 MC38, 5×10^5 CT26 or 1×10^6 LLC cells were inoculated subcutaneously into right dorsal flanks of the mice in 100 μL phosphate buffered saline (PBS). Tumor-bearing mice were randomly grouped into treatment groups when tumors grew to around 100 mm^3. […] For CSF1R, NKL.1, CD4+ and CD8+ T cell depletion, 200 μg of antibodies were intraperitoneally injected 1 day before treatment initiation and then twice a week for 2 weeks. For PD-L1 blockade combination therapy in MC38 model, 6-thio-dG was given on day 10 and day 11, 50 μg PD-L1 was intraperitoneally injected on day 13 and 17. For PD-L1 blockade combination therapy in LLC model, 6-thio-dG was given on day 4, 5, 6, 10 and 11, 200 μg PD-L1 was intraperitoneally injected on day 8 and 13. Tumor volumes were measured by the length (a), width (b) and height (h) and calculated as tumor volume=abh/2.

[6] = tested on: MC38 cells; assay: Telomere dysfunction Induced Foci (TIF) and micronuclei assays in cells; format: cell-based, mouse
Procedure: Telomere dysfunction Induced Foci (TIF) and micronuclei assays. The TIF assay is based on the co-localization detection of DNA damage by an antibody against DNA damage response factors such as gamma-H2AX, 53BP1, and antibody against telomeric proteins or telomeres using telomere sequence-specific peptide nucleic acid (PNA) probe (Mender and Shay, 2015). Briefly, cells were seeded into 4-well chamber slides. Next day, cells were treated with 1 μM 6-thio-dG for 24 hrs (for TIF assay) or 1-3 μM 6-thio-dG for 48 hrs (for micronuclei assay). Slides were then rinsed twice with PBS and fixed in 4% formaldehyde (Thermo Fisher) in PBS for 10 mins. Then, cells were washed twice with PBS and permeabilized in 0.5% Triton X-100 in PBS for 10 min. Following permeabilization, cells were washed three times with PBS. Cells were blocked with 10% goat serum in 0.1% PBST (TritonX-100) for 1 hr. Gamma-H2AX (TIF assay, mouse, 1:1000) (Millipore) or lamin A/C (micronuclei assay, mouse, 1:500) (Santa Cruz) was diluted in blocking solution and incubated on cells for 2 hrs. Following three washes with PBST (1×PBS in 0.1% Triton) and 3 washes with PBS, cells were incubated with Alexaflour 568 conjugated goat anti-mouse (1:500) (Invitrogen) for 40 mins, then washed five times with 0.1% PBST. Cells were fixed in 4% formaldehyde in PBS for 20 mins at RT. The slides were sequentially dehydrated with 70%, 90%, 100% ethanol followed by denaturation with hybridization buffer containing FAM-conjugated telomere sequence (C-rich)-specific PNA probe, 70% formamide, 30% 2×SSC, 10% (w/v) MgCl2·6H2O (Fisher Sci), 0.25% (w/v) blocking reagent for nucleic acid hybridization and detection (Roche) for 7 mins at 80° C. on a heat block, followed by overnight incubation at RT. Slides were washed sequentially with 70% formamide (Ambion)/0.6×SSC (Invitrogen) (2×1 hr), 2×SSC (1×15 mins), PBS (1×5 mins) and sequentially dehydrated with 70%, 90%, 100% ethanol, then mounted with Vectashield mounting medium with DAPI (Vector Laboratories). […] TIFs were quantified using Image J.

[7] = tested on: TBK1; assay: Immunoblotting of DCs after co-culture; format: cell-based, mouse; settings: co-culture 6 hrs with MC38 pretreated with 0.2 μM or 1 μM 6-thio-dG
Procedure: Immunoblotting. BMDC and MC38 treatment were same as “In vitro co-culture of bone marrow dendritic cells”. 6 hrs after co-culture, DC was isolated with CD11c+ positive selection kit (Stemcell). Protein sample preparation and immunoblot procedures were performed as previously described (Liu et al., 2019). Proteins were detected with rabbit monoclonal antibodies for pSTING (Cell signaling, 72971), STING (Cell signaling, 50494), pTBK1 (Cell signaling, 5483), TBK1 (Cell signaling, 3504). Protein loading was determined with antibodies against with Cyclophilin A (Cell signaling, 2175). Anti-rabbit (1:2000 in 5% BSA) was used for secondary antibody (Cell signaling, 7074). X-ray film (GeneMate, F-9024-8X10) was used to develop the membranes. Clarity Max Western ECL Substrate (Biorad, 1705062) or Supersignal West PicoPlus Chemiluminescent Substrate (Thermoscientific, 34577) was used for chemiluminescent western blot.

[8] = tested on: cancer cells; settings: depending on cell type, even including therapy resistant cancers; read-out: observed IC50 values; cited from earlier work
[9] = tested on: tumor-derived xenograft models; settings: many tumor-derived xenograft models; cited from earlier work

Nc1nc2c(ncn2[C@H]2C[C@H](O)[C@@H](CO)O2)c(=S)[nH]1 [6-thio-dG, 6-thio-2′-deoxyguanosine]
pIC50 [1]: 6.43
pIC50 [2]: 6.14
cell viability in vitro [3]: cell viability inhibition
sensitivity in vitro (cell viability) [4]: sensitive
tumor growth ([5]; C57BL/6 mice, 3 mg/kg, three days treatment (days 4, 5, 6)): significant tumor growth delay
tumor growth (FIG. 8A) ([5]; lewis lung carcinoma, three days 6-thio-dG followed two days later with anti-PD-L1): significant tumor control for 20 days
interphase bridges between daughter cells during telophase [6]: induced interphase bridges
telomere stress by TIF assay ([6]; 1 μM 6-thio-dG for 24 hrs): induced telomere damages
micronuclei ([6]; 1 μM 6-thio-dG, 48 hrs): induced micronuclei
TBK1 phosphorylation in DCs [7]: increase
pIC50 [8]: 5.54 to 6.15
side effects in xenograft models [9]: minimal side effects
tumor response in xenograft models [9]: rapid tumor shrinkage or growth arrest
